Values joined by “and” are separate entries in the source; they are usually repeats but may differ in a detail not shown here. Identical values can stand only once. Toxic doses and inconclusive results are not listed. No stated cut-off is given here; in the data, active means T/C of 150% or more; inactive means T/C below 125%.
Test system: L1210 leukemia ip in BDF1 mice, survival T/C
Experiment: NCI In Vivo Anticancer Drug Screen. Data for tumor model L1210 Leukemia (intraperitoneal) in B6D2F1 (BDF1) mice
Conditions: endpoint: mean survival time, higher = longer survival
Outline: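 Survival endpoint. Drug-treated group vs vehicle group, expressed as T divided by C. Tumor passaged by transplantation.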

[1] = dose: 100.0 mg/kg/injection, schedule: Q01DX009 (ip), vehicle: saline with Tween-80
[2] = dose: 100.0 mg/kg/injection, schedule: Q01DX001 (ip), vehicle: saline
[3] = dose: 200.0 mg/kg/injection, schedule: Q01DX001 (ip), vehicle: saline
[4] = dose: 400.0 mg/kg/injection, schedule: Q01DX001 (ip), vehicle: saline
[5] = dose: 100.0 mg/kg/injection, schedule: Q04DX003 (ip), vehicle: saline
[6] = dose: 200.0 mg/kg/injection, schedule: Q04DX003 (ip), vehicle: saline
[7] = dose: 400.0 mg/kg/injection, schedule: Q04DX003 (ip), vehicle: saline
[8] = dose: 50.0 mg/kg/injection, schedule: Q01DX009 (ip), vehicle: saline with Tween-80
[9] = dose: 100.0 mg/kg/injection, schedule: Q04DX003 (ip), vehicle: saline with Tween-80
[10] = dose: 200.0 mg/kg/injection, schedule: Q01DX009 (ip), vehicle: saline with Tween-80
[11] = dose: 200.0 mg/kg/injection, schedule: Q04DX003 (ip), vehicle: saline with Tween-80
[12] = dose: 100.0 mg/kg/injection, schedule: Q01DX001 (ip), vehicle: Klucel (hydroxypropylcellulose) (HPC)
[13] = dose: 100.0 mg/kg/injection, schedule: Q04DX002 (ip), vehicle: Klucel (hydroxypropylcellulose) (HPC)
[14] = dose: 200.0 mg/kg/injection, schedule: Q04DX002 (ip), vehicle: Klucel (hydroxypropylcellulose) (HPC)
[15] = dose: 400.0 mg/kg/injection, schedule: Q04DX002 (ip), vehicle: Klucel (hydroxypropylcellulose) (HPC)
[16] = dose: 100.0 mg/kg/injection, schedule: Q01DX001 (ip), vehicle: carboxymethylcellulose (CMC)
[17] = dose: 200.0 mg/kg/injection, schedule: Q01DX001 (ip), vehicle: carboxymethylcellulose (CMC)
[18] = dose: 400.0 mg/kg/injection, schedule: Q01DX001 (ip), vehicle: carboxymethylcellulose (CMC)

Measured: T/C

CCCCC(C(=O)O)(c1ccccc1)c1ccccc1
inactive: dose: 75.0 mg/kg/injection, schedule: Q04DX002 (ip), vehicle: gum acacia 96 % of control | dose: 150.0 mg/kg/injection, schedule: Q04DX002 (ip), vehicle: gum acacia 107 % of control

CC1(C)c2ccccc2C(=O)C1(Br)Cc1ccccc1 (configuration not stated)
inactive: [1] 90 % of control

CCSCCCCO
inactive: dose: 75.0 mg/kg/injection, schedule: Q01DX001 (ip), vehicle: saline 101 % of control | dose: 75.0 mg/kg/injection, schedule: Q01DX009 (ip), vehicle: saline 102 % of control | dose: 150.0 mg/kg/injection, schedule: Q01DX001 (ip), vehicle: saline 101 % of control | dose: 150.0 mg/kg/injection, schedule: Q01DX009 (ip), vehicle: saline 100 % of control | dose: 300.0 mg/kg/injection, schedule: Q01DX001 (ip), vehicle: saline 97 % of control

NC(CSS(=O)(=O)O)=NCc1ccoc1
inactive: dose: 12.5 mg/kg/injection, schedule: Q04DX002 (ip), vehicle: saline with Tween-80 98 % of control | dose: 25.0 mg/kg/injection, schedule: Q04DX002 (ip), vehicle: saline with Tween-80 98 % of control | dose: 50.0 mg/kg/injection, schedule: Q04DX002 (ip), vehicle: saline with Tween-80 95 % of control and 98 % of control

C/C=C/c1nc2c([nH]1)c(=O)n(C)c(=O)n2C
inactive: dose: 50.0 mg/kg/injection, schedule: Q01DX001 (ip), vehicle: saline 107 % of control | [2] 107 % of control | [3] 104 % of control | [4] 98 % of control

CCC1=C(c2ccccc2)OS(=O)(=O)NC1=O
inactive: [5] 97 % of control | [6] 97 % of control | [7] 109 % of control

CCCCC(=O)N/N=C/c1ccc(NC(C)=O)cc1
inactive: [2] 102 % of control | [3] 102 % of control | [4] 102 % of control

O=C(O/N=C(\C(=O)c1ccccc1)c1ccccc1)c1ccc(Br)cc1
inactive: [8] 97 % of control | [1] 92 % of control | [9] 94 % of control | [10] 89 % of control | [11] 87 % of control

O=C(/C=N/O)Nc1cc(Cl)c(Cl)cc1Cl
inactive: [8] 97 % of control | [1] 94 % of control | [9] 98 % of control | [10] 94 % of control | [11] 103 % of control

O=C(O)CCC(=O)/C=C1/Nc2ccccc2C1=O
inactive: [9] 88 % of control | [11] 90 % of control | dose: 400.0 mg/kg/injection, schedule: Q04DX003 (ip), vehicle: saline with Tween-80 88 % of control

Oc1ccccc1C=Nc1ccc(Cc2ccc(N=Cc3ccccc3O)cc2)cc1
inactive: [2] 96 % of control | dose: 150.0 mg/kg/injection, schedule: Q04DX003 (ip), vehicle: other 104 % of control | [3] 90 % of control | dose: 300.0 mg/kg/injection, schedule: Q04DX003 (ip), vehicle: other 86 % of control | [4] 90 % of control

CN(C)c1nc(C(=O)O)cc(=O)[nH]1
inactive: dose: 100.0 mg/kg/injection, schedule: Q01DX Z (ip), vehicle: saline 101 % of control | dose: 200.0 mg/kg/injection, schedule: Q01DX Z (ip), vehicle: saline 100 % of control

NC(=O)CCCCCCCCC(N)=O
inactive: [2] 98 % of control | [3] 98 % of control | [4] 92 % of control

CC[N+]1(CC)N=C([O-])N(C)C1=O
inactive: [1] 101 % of control | [10] 101 % of control | dose: 400.0 mg/kg/injection, schedule: Q01DX009 (ip), vehicle: saline with Tween-80 103 % of control

N#CC(C#N)=Cc1c(Cl)cccc1Cl
inactive: dose: 6.25 mg/kg/injection, schedule: Q01DX001 (ip), vehicle: Klucel (hydroxypropylcellulose) (HPC) 96 % of control | dose: 6.25 mg/kg/injection, schedule: Q04DX003 (ip), vehicle: Klucel (hydroxypropylcellulose) (HPC) 94 % of control | dose: 12.5 mg/kg/injection, schedule: Q01DX001 (ip), vehicle: Klucel (hydroxypropylcellulose) (HPC) 103 % of control | dose: 12.5 mg/kg/injection, schedule: Q04DX003 (ip), vehicle: Klucel (hydroxypropylcellulose) (HPC) 114 % of control | dose: 25.0 mg/kg/injection, schedule: Q01DX001 (ip), vehicle: Klucel (hydroxypropylcellulose) (HPC) 96 % of control and 109 % of control | dose: 25.0 mg/kg/injection, schedule: Q04DX003 (ip), vehicle: Klucel (hydroxypropylcellulose) (HPC) 97 % of control | [12] 105 % of control

O=C1NC(c2cccc3ccccc23)Nc2ccc(Cl)cc21 (configuration not stated)
inactive: dose: 50.0 mg/kg/injection, schedule: Q01DX009 (ip), vehicle: Klucel (hydroxypropylcellulose) (HPC) 108 % of control and 109 % of control | dose: 150.0 mg/kg/injection, schedule: Q01DX009 (ip), vehicle: Klucel (hydroxypropylcellulose) (HPC) 116 % of control

CC(=O)Nc1ccc(C(C)(C)c2ccc([N+](=O)[O-])cc2)cc1[N+](=O)[O-]
inactive: dose: 50.0 mg/kg/injection, schedule: Q01DX001 (ip), vehicle: other 98 % of control | dose: 100.0 mg/kg/injection, schedule: Q01DX001 (ip), vehicle: other 104 % of control | dose: 400.0 mg/kg/injection, schedule: Q01DX001 (ip), vehicle: other 93 % of control

O=C(O)/C=C/C(=O)Nc1cccc(Oc2ccc([N+](=O)[O-])cc2[N+](=O)[O-])c1
inactive: [5] 106 % of control | [6] 111 % of control | [7] 104 % of control

Nc1nc2c(c(-c3ccc(Cl)cc3)n1)CN(CCC(=O)O)C2=O
inactive: [2] 100 % of control | [5] 98 % of control | [3] 105 % of control | [6] 98 % of control | [4] 102 % of control | [7] 98 % of control

OCCCCN1CCCCC1
inactive: [2] 106 % of control | [3] 101 % of control

CC(=O)OCCc1ccccc1C
inactive: [13] 112 % of control | [14] 104 % of control | [15] 101 % of control

CCCCc1ccc(-n2c(C)c(COC(=O)NC)c(COC(=O)NC)c2C)cc1
inactive: dose: 3.12 mg/kg/injection, schedule: Q01DX009 (ip), vehicle: Klucel (hydroxypropylcellulose) (HPC) 122 % of control | dose: 6.25 mg/kg/injection, schedule: Q01DX009 (ip), vehicle: Klucel (hydroxypropylcellulose) (HPC) 122 % of control

CSc1ncnc2c1N=CNN2
inactive: dose: 50.0 mg/kg/injection, schedule: Q01DX001 (ip), vehicle: carboxymethylcellulose (CMC) 94 % of control | [16] 95 % of control

CCOC(=O)C1(Cc2ccccc2)CCCC1=O (configuration not stated)
inactive: [16] 107 % of control | [17] 96 % of control | [18] 96 % of control

CCCC(=O)c1cc(C)ccc1OC
inactive: [16] 103 % of control | [17] 106 % of control | [18] 106 % of control

OCCCCCc1ccccc1
inactive: dose: 100.0 mg/kg/injection, schedule: Q01DX009 (ip), vehicle: other 105 % of control | [5] 92 % of control | dose: 200.0 mg/kg/injection, schedule: Q01DX009 (ip), vehicle: other 102 % of control | [6] 101 % of control | dose: 400.0 mg/kg/injection, schedule: Q01DX009 (ip), vehicle: other 102 % of control | [7] 90 % of control

COc1ccc(OC)c(NCCCN2C(=O)c3ccccc3C2=O)c1
inactive: [13] 87 % of control | [14] 102 % of control | [15] 91 % of control

CSCSCC(N)C(=O)O (configuration not stated)
inactive: [2] 94 % of control | dose: 150.0 mg/kg/injection, schedule: Q04DX003 (ip), vehicle: saline 100 % of control | [3] 100 % of control | dose: 300.0 mg/kg/injection, schedule: Q04DX003 (ip), vehicle: saline 94 % of control | [4] 100 % of control | dose: 600.0 mg/kg/injection, schedule: Q04DX003 (ip), vehicle: saline 97 % of control

ClCC[N-]CC[N-]CCCl.[Cl][Pt+2][Cl]
inactive: [12] 113 % of control | dose: 200.0 mg/kg/injection, schedule: Q01DX001 (ip), vehicle: Klucel (hydroxypropylcellulose) (HPC) 107 % of control | dose: 200.0 mg/kg/injection, schedule: Q04DX003 (ip), vehicle: Klucel (hydroxypropylcellulose) (HPC) 104 % of control | dose: 400.0 mg/kg/injection, schedule: Q04DX003 (ip), vehicle: Klucel (hydroxypropylcellulose) (HPC) 88 % of control

Source: PubChem BioAssay AID248 (DTP/NCI, 2004)
